Test results as given in patent US8822445B2, “Crystalline form of carbapenem derivative or its hydrates and preparation methods and uses thereof” (priority 2010, dated 2014).
≈ marks a conversion by molar mass, not a printed value. Entries after “also recorded” stand apart in the source; their conditions may differ.

Columns and labels:
[1] = Stability assay at a high temperature of 60° C. (water content, related substances, content); assay type: physicochemical; conditions: for Content %: HPLC; for Water content %: Karl Fischer method
Protocol: The crystalline form I: prepared by referring to the method of example 1 in CN201010178970.2. The batch number is 20100315-4;
The crystalline form II: prepared by example 2 of the Description. The batch number is 040805.
Test condition: sampled after being placed for 5 and 10 days at a high temperature of 60° C., and the results thus obtained were compared with those obtained at day 0 by measuring water content, related substances and contents thereof. The samples were sealed with plastic bags coated with aluminium foils during the assay.
Water content determination is performed according to the first method (the Karl Fischer method) in Chinese Pharmacopoeia, 2010 edition, Appendix VIII M.
Assay is performed by using the control as the external standard according to the high performance liquid chromatography in Chinese Pharmacopoeia, 2010 edition, Appendix VD.
Apparatus: high performance liquid chromatograph (Agilent 1200 series)
Chromatographic column: Agilent C18; filler: 5 μm octadecyl silane boned silica gel; inner diameter: 4.6 mm; length of the column: 150 mm.
Column temperature: 30° C.
Mobile phase: 0.02 M diammonium phosphate (pH=5.2 adjusted by phosphoric acid): acetonitrile=100:7
Determination of related substances is performed by area normalization method according to the high performance liquid chromatography in Chinese Pharmacopoeia, 2010 edition, Appendix VD.
Chromatographic column: Agilent C18; filler: 5 μm octadecyl silane boned silica gel; inner diameter: 4.6 mm; length of column: 150 mm.
Mobile phase: A: 0.02 M diammonium phosphate (pH=5.2 adjusted by phosphoric acid): acetonitrile=95:5.
B: 0.02 M diammonium phosphate (pH=5.2 adjusted by phosphoric acid): acetonitrile=30:70.
Gradient condition: see Table 1 below.

[2] = system: Gram-positive and Gram-negative bacteria; test: Antibacterial activity assay, overall conclusion; assay type: cell-based; conditions: clinically isolated strains
Description: (§1) Test strains: the following clinically isolated strains were provided by public organizations.
(§2) Gram-positive bacteria: methicillin sensitive Staphylococcus aureus (MSSA), and penicillin sensitive Streptococcus pneumoniae;
(§3) Gram-negative bacteria: ESBLs negative Escherichia coli, ESBLs positive Escherichia coli, Haemophilus influenzae, and Moraxelle catarrhalis.
(§4) Test compound: the crystalline form II of compound A
(§5) Experimental method: standard agar double dilution method was adopted.

[3] = system: ESBLs negative Escherichia coli; test: Antibacterial activity assay, standard agar double dilution method, clinically isolated strains; assay type: cell-based; conditions: ESBLs negative Escherichia coli clinical isolates
Description: as §1, §2, §3, §4, §5

[4] = system: penicillin sensitive Streptococcus pneumoniae; test: as above; assay type: cell-based; conditions: Penicillin sensitive Streptococcus pneumoniae clinical isolates
Description: as §1, §2, §3, §4, §5

[5] = system: methicillin sensitive Staphylococcus aureus (MSSA); test: as above; assay type: cell-based; conditions: MSSA clinical isolates
Description: as §1, §2, §3, §4, §5

Haemophilus influenzae = test: as above; assay type: cell-based; conditions: Haemophilus influenzae clinical isolates
Description: as §1, §2, §3, §4, §5

[6] = system: ESBLs positive Escherichia coli; test: as above; assay type: cell-based; conditions: ESBLs positive Escherichia coli clinical isolates
Description: as §1, §2, §3, §4, §5

Moraxelle catarrhalis = test: as above; assay type: cell-based; conditions: Moraxelle catarrhalis clinical isolates
Description: as §1, §2, §3, §4, §5

[7] = 5 days at 60° C. as compared with day 0
[8] = 10 days at 60° C. as compared with day 0

Row | SMILES | Decrease in content % [1, 7] | Decrease in water content % [1, 7] | Increase open ring % [1, 7] | Increase total % [1, 7] | Related substance % Total % ([1]; 5 days at 60° C., sealed) | Related substance % open ring % ([1]; 5 days at 60° C., sealed) | Content % ([1]; 5 days at 60° C.) | Water content % ([1]; 5 days at 60° C.) | Decrease in content % [1, 8] | Decrease in water content % [1, 8] | Increase open ring % [1, 8] | Increase total % [1, 8] | Related substance % Total % ([1]; 10 days at 60° C., sealed) | Related substance % open ring % ([1]; 10 days at 60° C., sealed) | Content % ([1]; 10 days at 60° C.) | Water content % ([1]; 10 days at 60° C.) | Related substance % Total % ([1]; day 0) | Related substance % open ring % ([1]; day 0) | Content % ([1]; day 0) | Water content % ([1]; day 0) | other results
1 | C[C@@H](O)[C@H]1C(=O)N2C(C(=O)O)=C(S[C@@H]3CN[C@H](C(=O)NCc4ccc(S(N)(=O)=O)cc4)C3)[C@H](C)[C@H]12 [crystalline form I, (4R,5S,6S)-6-((R)-1-hydroxyethyl)-4-methyl-7-oxo-3-(((3S,5S)-5-((4-sulfamoylbenzyl)carbamoyl)pyrrolidin-3-yl)thio)-1-azabicyclo[3.2.0]hept-2-ene-2-carboxylic acid] | 3.73% | 0.183% | 0.646% | 0.841% | 2.550% | 0.782% | 96.27% | 7.701% | 3.95% | 0.665% | 0.984% | 1.167% | 2.876% | 1.120% | 96.05% | 7.219% | 1.709% | 0.136% | 100% | 7.884% | –
2 | C[C@@H](O)[C@H]1C(=O)N2C(C(=O)O)=C(S[C@@H]3CN[C@H](C(=O)NCc4ccc(S(N)(=O)=O)cc4)C3)[C@H](C)[C@H]12 [crystalline form II, (4R,5S,6S)-6-((R)-1-hydroxyethyl)-4-methyl-7-oxo-3-(((3S,5S)-5-((4-sulfamoylbenzyl)carbamoyl)pyrrolidin-3-yl)thio)-1-azabicyclo[3.2.0]hept-2-ene-2-carboxylic acid] | 1.57% | 0.026% | 0.632% | 0.527% | 1.573% | 0.789% | 98.43% | 8.290% | 2.24% | 0.402% | 0.944% | 0.853% | 1.899% | 1.101% | 97.76% | 7.914% | 1.046% | 0.157% | 100% | 8.316% | antibacterial activity [2]: excellent antibacterial activity against both Gram-positive and Gram-negative bacteria; stability as compared with the crystalline form I ([1]; 5 and 10 days at 60° C.): superior stability; also recorded: better than that of the crystalline form I; MIC90 [3]: 0.016 µg/mL (≈ 0.0305 µM); MICmode [3]: 0.016 mg/L; MIC90 [4]: 0.031 µg/mL (≈ 0.0591 µM); MICmode [4]: 0.008 mg/L; MICmode [5]: 0.062 mg/L; MIC90 ([5]; Staphylococcus aureus): 0.062 µg/mL (≈ 0.118 µM); MIC90 (Haemophilus influenzae): 0.125 µg/mL (≈ 0.238 µM); MICmode (Haemophilus influenzae): 0.062 mg/L; MIC90 [6]: 0.25 µg/mL (≈ 0.477 µM); MICmode [6]: 0.016 mg/L; MIC90 (Moraxelle catarrhalis): 0.008 µg/mL (≈ 0.0152 µM); MICmode (Moraxelle catarrhalis): 0.004 mg/L
